How the values were obtained:
MYZUPE = assay: Example 1: irrigation experiment in pots, Abbott efficacy; assay type: in vivo, Myzus persicae
Experimental: In an irrigation experiment carried out in 0.5-1-pots, Chinese cabbage, Savoy cabbage, bell peppers and broad beans which had been potted three days earlier are watered, in two replications, with 50 ml of active substance solution containing the active substance I-4 (cis isomer) at the application rates stated. The greenhouse temperature is 20° C. Infection with MYZUPE is accomplished seven and fourteen days after the application of the active substance. The test is evaluated in each case seven days after each infection by determining the activity with the aid of Abbott's formula.

APHIGO = assay: Example 2: drench of cucumber plants on rock wool, Abbott efficacy; assay type: in vivo, Aphis gossypii; conditions: 240 SC
Experimental: Cucumber plants cv. “Delikatess” which have been grown on rock wool are drenched, in six replications, one week after transplanting with in each case 100 ml active substance solution containing the active substance I-4 (cis isomer, formulation: 240 SC) at the application rate stated. The greenhouse temperature is 20° C. Infection with APHIGO is accomplished in each case seven and fourteen days after the application of the active substance. The test is evaluated in each case seven days after each infection by determining the activity with the aid of Abbott's formula.

Aphis gossypii (APHIGO) = assay: Example 4: drench of aubergine plants, Abbott efficacy; assay type: in vivo; conditions: infection 7 d after application, 240 SC
Experimental: (§1) Aubergine plants (25 days after sowing) in 0.5-1-pots are drenched, in three replications, with 50 ml of active substance solution containing the active substance I-4 (cis isomer, formulation: 240 SC) at the application rate stated. The greenhouse temperature is 20° C. Infection with Aphis gossypii (APHIGO), Myzus persicae (MYZUPE) and Tetranychus urticae (TETRUR) is accomplished in each case seven and fourteen days after the application of the active substance. The test is evaluated in each case seven days after each infection by determining the activity with the aid of Abbott's formula.

Myzus persicae (MYZUPE) = assay: as above; assay type: in vivo; conditions: 240 SC
Experimental: as §1

[1] = system: Tetranychus urticae (TETRUR); assay: as above; assay type: in vivo; conditions: 240 SC
Experimental: as §1

[2] = system: Tetranychus urticae (TETRUR); assay: Example 5: drench of gardenia plants, Henderson-Tilton efficacy against nymphs; assay type: in vivo; conditions: 240 SC
Experimental: Gardenia plants cv. “Cape jasmine” in 6-inch pots which had been infected with Tetranychus urticae (TETRUR) two weeks before the beginning of the experiment are drenched, in three replications, with in each case 100 ml of active substance solution containing the active substance I-4 (cis isomer, formulation: 240 SC) and, by way of comparison, with the commercial standard imidacloprid (240 SC) at the application rate stated. The greenhouse temperature is 25-30° C. The test is evaluated 3, 15 and 22 days after the treatment by determining the activity against nymphs on the leaves with the aid of the Henderson-Tilton method.

[3] = system: Trialeurodes vaporarium (TRIAVA); assay: Example 9: drench of courgette plots, Abbott efficacy; assay type: in vivo; conditions: four treatments of 10 mg active substance/plant at 10-day intervals, I-4 240 SC, imidacloprid 200 SL
Experimental: Plots approximately 12 m^2 in size and containing courgette plants (47 days after sowing) are drenched, in three replications, against Trialeurodes vaporarium (TRIAVA) with 100 ml of an active substance solution per plant, containing the active substance I-4 (cis isomer, formulation: 240 SC) and, by way of comparison, with the standard imidacloprid (200 SL) at the application rate stated. Four applications are effected at 10-day intervals. The test is evaluated 21, 31, 38 and 45 days after the 1st treatment by determining the efficacy with the aid of Abbott's formula.

Liriomyza sp. = assay: Example 14: drench of bell pepper plots, kill rate of larvae in the leaves; assay type: in vivo; conditions: 40 + 10 + 10 mg/plant, 240 SC
Experimental: Plots approximately 2×5 m in size which contain bell pepper plants are treated, in three replications, against Liriomyza sp. The active substance example (I-4) cis isomer (240 SC) is drenched in an active substance solution at the application rate stated. The water application rate is 700 l/ha. Three treatments are carried out at intervals of 7 and 14 days. The test is evaluated in each case 7 days after the 2nd and 3rd treatment and 14 days after the 3rd treatment by scoring the kill rate of the larvae in the leaves.

[4] = system: foliar nematode Aphelenchoides fragariae; assay: Example 16: dip treatment of lily bulbs, number of infested plants; assay type: in vivo; conditions: control 8
Experimental: The bulbs of 15 lily plants cv. “L.A. Glow” (growth stage 14/16) are dipped, in four replications, into an active substance solution containing the active substance I-4 (cis isomer, formulation: 240 SC) at the concentrations stated and subsequently planted into boxes 40×60 cm in size. The bulbs came from a field which was homogeneously infested with the foliar nematode Aphelenchoides fragariae. The number of infested plants is determined by examining leaves under the microscope for foliar nematodes 92 days after the dip treatment.

[5] = infection 7 d after application, 10 mg active substance/plant
[6] = infection 7 d after application, 20 mg active substance/plant
[7] = infection 14 d after application, 10 mg active substance/plant
[8] = infection 14 d after application, 20 mg active substance/plant

CCOC(=O)OC1=C(c2cc(C)ccc2C)C(=O)N[C@]12CC[C@@H](OC)CC2 [Example I-4]
Abbott efficacy (%) against MYZUPE (MYZUPE; Bell pepper, infection 7 d after application, 10 mg active substance/plant): 100%
Abbott efficacy (%) against MYZUPE (MYZUPE; Bell pepper, infection 7 d after application, 20 mg active substance/plant): 100%
Abbott efficacy (%) against MYZUPE (MYZUPE; Bell pepper, infection 14 d after application, 10 mg active substance/plant): 100%
Abbott efficacy (%) against MYZUPE (MYZUPE; Bell pepper, infection 14 d after application, 20 mg active substance/plant): 100%
Abbott efficacy (%) against MYZUPE (MYZUPE; Broad bean, infection 7 d after application, 10 mg active substance/plant): 83%
Abbott efficacy (%) against MYZUPE (MYZUPE; Broad bean, infection 7 d after application, 20 mg active substance/plant): 100%
Abbott efficacy (%) against MYZUPE (MYZUPE; Broad bean, infection 14 d after application, 10 mg active substance/plant): 23%
Abbott efficacy (%) against MYZUPE (MYZUPE; Broad bean, infection 14 d after application, 20 mg active substance/plant): 99%
Abbott efficacy (%) against MYZUPE (MYZUPE; Chinese cabbage, infection 7 d after application, 10 mg active substance/plant): 100%
Abbott efficacy (%) against MYZUPE (MYZUPE; Chinese cabbage, infection 7 d after application, 20 mg active substance/plant): 100%
Abbott efficacy (%) against MYZUPE (MYZUPE; Chinese cabbage, infection 14 d after application, 10 mg active substance/plant): 99%
Abbott efficacy (%) against MYZUPE (MYZUPE; Chinese cabbage, infection 14 d after application, 20 mg active substance/plant): 99%
Abbott efficacy (%) against MYZUPE (MYZUPE; Savoy cabbage, infection 7 d after application, 10 mg active substance/plant): 100%
Abbott efficacy (%) against MYZUPE (MYZUPE; Savoy cabbage, infection 7 d after application, 20 mg active substance/plant): 100%
Abbott efficacy (%) against MYZUPE (MYZUPE; Savoy cabbage, infection 14 d after application, 10 mg active substance/plant): 99%
Abbott efficacy (%) against MYZUPE (MYZUPE; Savoy cabbage, infection 14 d after application, 20 mg active substance/plant): 99%
Abbott efficacy (%) against APHIGO (APHIGO; [5]): 100%
Abbott efficacy (%) against APHIGO (APHIGO; [6]): 100%
Abbott efficacy (%) against APHIGO (APHIGO; infection 7 d after application, 40 mg active substance/plant): 100%
Abbott efficacy (%) against APHIGO (APHIGO; [7]): 91%
Abbott efficacy (%) against APHIGO (APHIGO; [8]): 96%
Abbott efficacy (%) against APHIGO (APHIGO; infection 14 d after application, 40 mg active substance/plant): 99%
Abbott efficacy (%) against APHIGO (Aphis gossypii (APHIGO); 10 mg active substance/plant): 99%
Abbott efficacy (%) against APHIGO (Aphis gossypii (APHIGO); 20 mg active substance/plant): 100%
Abbott efficacy (%) against MYZUPE (Myzus persicae (MYZUPE); [5]): 100%
Abbott efficacy (%) against MYZUPE (Myzus persicae (MYZUPE); [6]): 100%
Abbott efficacy (%) against MYZUPE (Myzus persicae (MYZUPE); [7]): 100%
Abbott efficacy (%) against MYZUPE (Myzus persicae (MYZUPE); [8]): 100%
Abbott efficacy (%) against TETRUR [1, 5]: 96%
Abbott efficacy (%) against TETRUR [1, 6]: 100%
Abbott efficacy (%) against TETRUR [1, 7]: 73%
Abbott efficacy (%) against TETRUR [1, 8]: 77%
Henderson-Tilton efficacy (%) against TETRUR ([2]; 3 d after treatment, 77 mg active substance/1 potting compost): 39.0%
Henderson-Tilton efficacy (%) against TETRUR ([2]; 15 d after treatment, 77 mg active substance/1 potting compost): 89.1%
Henderson-Tilton efficacy (%) against TETRUR ([2]; 22 d after treatment, 77 mg active substance/1 potting compost): 100%
Abbott efficacy (%) against TRIAVA ([3]; 21 d after 1st treatment): 57.5%
Abbott efficacy (%) against TRIAVA ([3]; 31 d after 1st treatment): 85.9%
Abbott efficacy (%) against TRIAVA ([3]; 38 d after 1st treatment): 88.5%
Abbott efficacy (%) against TRIAVA ([3]; 45 d after 1st treatment): 85.7%
Efficacy (% Abbott) against Liriomyza sp. (Liriomyza sp.; 7 d after 2nd treatment): 66.7 % Abbott
Efficacy (% Abbott) against Liriomyza sp. (Liriomyza sp.; 7 d after 3rd treatment): 100 % Abbott
Efficacy (% Abbott) against Liriomyza sp. (Liriomyza sp.; 14 d after 3rd treatment): 81.8 % Abbott
Infested plants ([4]; comparison: foliar treatment with 150 g/ha, 15 lily plants): 6
Infested plants ([4]; lily bulbs dipped, a.i. 0.075 %, 15 plants, 92 days after dip treatment): 0
Infested plants ([4]; lily bulbs dipped, a.i. 0.15 %, 15 plants, 92 days after dip treatment): 0

O=[N+]([O-])NC1=NCCN1Cc1ccc(Cl)nc1 [Imidacloprid, imidacloprid, reference compound]
Henderson-Tilton efficacy (%) against TETRUR ([2]; 3 d after treatment, 38.4 mg active substance/1 potting compost): 72.7%
Henderson-Tilton efficacy (%) against TETRUR ([2]; 15 d after treatment, 38.4 mg active substance/1 potting compost): 82.2%
Henderson-Tilton efficacy (%) against TETRUR ([2]; 22 d after treatment, 38.4 mg active substance/1 potting compost): 0%
Abbott efficacy (%) against TRIAVA ([3]; 21 d after 1st treatment): 88.1%
Abbott efficacy (%) against TRIAVA ([3]; 31 d after 1st treatment): 74.0%
Abbott efficacy (%) against TRIAVA ([3]; 38 d after 1st treatment): 77.2%
Abbott efficacy (%) against TRIAVA ([3]; 45 d after 1st treatment): 63.7%

Source: US20120178786A9, “Use of tetramic acid derivatives for controlling pests by drenching, drip application, or dip application” (priority 2006, published 2012)
